Tests used:
CD22 (Siglec-2) [1] = molecular target: T1, CD22 (Siglec-2) (Homo sapiens, UniProt P20273); details: Table II; affinity to CD22, BPC NeuAc = 1; cited from earlier work
T1 sequence (P20273 20-847): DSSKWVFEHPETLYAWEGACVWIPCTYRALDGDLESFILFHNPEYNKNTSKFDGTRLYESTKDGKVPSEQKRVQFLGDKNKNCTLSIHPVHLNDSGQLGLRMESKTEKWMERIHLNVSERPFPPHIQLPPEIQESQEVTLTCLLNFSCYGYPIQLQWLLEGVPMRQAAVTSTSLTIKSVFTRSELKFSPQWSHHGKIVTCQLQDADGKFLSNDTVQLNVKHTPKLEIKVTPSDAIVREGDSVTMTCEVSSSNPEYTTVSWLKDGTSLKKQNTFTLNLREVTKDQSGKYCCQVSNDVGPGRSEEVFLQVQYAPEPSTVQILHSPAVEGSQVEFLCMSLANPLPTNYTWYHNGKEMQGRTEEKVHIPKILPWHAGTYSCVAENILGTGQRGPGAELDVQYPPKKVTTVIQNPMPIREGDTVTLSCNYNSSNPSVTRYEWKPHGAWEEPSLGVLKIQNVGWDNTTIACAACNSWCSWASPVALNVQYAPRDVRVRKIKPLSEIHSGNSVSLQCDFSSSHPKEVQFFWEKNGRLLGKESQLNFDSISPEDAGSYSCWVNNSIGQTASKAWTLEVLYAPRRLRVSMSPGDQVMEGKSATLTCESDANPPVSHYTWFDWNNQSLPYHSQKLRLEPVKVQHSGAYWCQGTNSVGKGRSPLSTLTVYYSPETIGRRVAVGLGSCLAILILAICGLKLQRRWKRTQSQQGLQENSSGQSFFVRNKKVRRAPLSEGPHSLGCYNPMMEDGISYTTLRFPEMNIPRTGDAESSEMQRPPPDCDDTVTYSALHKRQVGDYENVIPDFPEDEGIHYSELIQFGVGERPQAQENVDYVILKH

CD22 (Siglec-2) [2] = molecular target: T1, CD22 (Siglec-2); assay: New assay: displacement of biotin conjugate 35 from sialidase-treated Daudi cells, measured by FACS; format: binding; parameters: endogenous in cells; host or cells: Daudi (human B cell lymphoma line); details: Table II, IC50 values converted into rIP, BPC NeuAc = 1, 2 μmolar substance 35
Description: In order to be able to determine the affinity of the novel derivatives to CD22, a new assay was developed. For this assay, compound 35 (conjugate of a sialic acid derivative of the formula (I) and biotin) was prepared.
To determine the affinity of the compound of the formula (I), approximately 2×10^8 cells of the human B cell lymphoma line “Daudi” were incubated with sialidase (A. ureafaciens) for 1 h at 37° C. Subsequently, the enzyme was blocked with 1.5 mM 2,3-dehydroNeu5Ac and the cells were washed twice with PBS. Batches of 1-2×10^6 cells were transferred to sample vials and incubated on ice for 15 min with serial concentrations (10-fold dilutions) of the substance to be measured (inhibitor) and then for 20 min with 2 μmolar substance 35. The reaction volume was 50 μl. After washing with PBS, the sample was incubated for 15 min with Streptavidin-PE in the dark, then washed and the amount of substance 35 bound via Streptavadin-PE was measured by FACS. For the determination of 0% displacement of substance 35, cells without inhibitor were measured. For the determination of 100% displacement, cells were measured without substance 35 and without inhibitor. 4 substances and one reference substance were measured per assay. The IC50 values determined in each assay were subsequently converted into rIP values. For this purpose, substance 46 served as reference. […]

| SMILES | rIP (Literature assay) (CD22 (Siglec-2) [1]) | rIP (New assay) (CD22 (Siglec-2) [2]) |
| --- | --- | --- |
| COC(=O)CCCCCO[C@@H]1O[C@H](CO)[C@@H](O[C@@H]2O[C@H](CO[C@]3(C(=O)[O-])C[C@H](O)[C@@H](NC(C)=O)[C@H]([C@H](O)[C@H](O)CNC(=O)c4ccc(-c5ccccc5)cc4)O3)[C@H](O)[C@H](O)[C@H]2O)[C@H](O)[C@H]1NC(C)=O.[Na+] [BPC NeuAc- LN] | 15.9 | – |
| CO[C@]1(C(=O)[O-])C[C@H](O)[C@@H](NC(C)=O)[C@H]([C@H](O)[C@H](O)CNC(=O)c2ccc(-c3ccccc3)cc2)O1.[Na+] [BPC NeuAc] | 1 | 1 |

Reference: US9539336B2, “Sialic acid derivatives” (priority 2012, dated 2017)
